# From patent US11331364B2, “Use for JNK inhibitor molecules for treatment of various diseases” (Xigen Inflammation Ltd., priority 2014, dated 2022)
# Square brackets hold non-standard residues; d marks the D form. Peptide text beside a SMILES is read from it.
# Experiments:
# rat whole blood = test: PMA+ionomycin-induced IL-2 release in rat whole blood; type: cell-based; details: 10 μM; three activator concentrations, 4 h
# Description: FIG. 17 Dose dependent inhibition of IL-2 release in rat whole blood stimulated with PMA+ionomycin. JNK inhibitor with SEQ ID NO: 172 was added at three different concentrations, namely 1, 3 and 10 μM 1 h before stimulation with PMA+ionomycin. Three doses of activators were added (25/500 ng/mL, 50/750 ng/mL and 50/1000 ng/mL) for 4 h. IL-2 release was assessed in supernatant.
# Whole blood is collected from anesthetized rat or human healthy volunteers using a venipuncture connected to a pre-labeled vacuum tube containing sodium citrate. Tubes are gently mixed by inversion 7-8 times; and are then kept at RT until stimulation. JNK inhibitor of SEQ ID NO: 172 is prepared 6 times concentrated in PBS, and 30 μl/well of mix is added into 96-well plate. Whole blood is diluted by 1:2 in PBS and 120 μl of diluted blood is added in each well where either PBS alone or JNK inhibitor of SEQ ID NO: 172 has been previously added. Whole blood is incubated at 37° C.; 85 rpm (Stuart Orbital incubator SI500) for 60 min. Activators (LPS) are the prepared, 30 μl/well of LPS, 6 times concentrated. […] Cytokine (IL-6, IL-2, IFNγ and TNFα) were then measured using standard Elisa kits (e.g. from R&D Systems: DuoSet Elisas; or from BD Biosciences: BD Opteia Set Elisa). Results are expressed as pg/ml of supernatant of the measured cytokine. […]
# [1] = system: Imiquimod-induced psoriasis in mice; test: Imiquimod-induced psoriasis, ear histopathology; type: in vivo, mouse
# Description: Female BALB/cAnNCrl mice (Charles River, age 8 to 10 weeks at study start) have been assigned to the following groups (treatment schedule):
# In this experiment, two positive controls have been utilized. Firstly, Prednisolone at 10 mg/kg (vehicle: 1% Hydroxyethylcellulose, 0.25% Polysorbate 80, and 0.05% Antifoam in purified water) has been dosed daily and orally (group “Prednisolone”). Secondly, Dexamethasone has been administered at 0.5 mg/kg (vehicle: sterile 0.9% NaCl) on days 1, 4 and 7 via intravenous route.
# On day 8, animals have been sacrificed and the tissue (ear) has been fixed in 10% neutral buffered formalin. For histopathology hematoxylin-and-eosin-stained sections (cross cut) have been prepared and microscopic evaluation on the collected tissues from all animals has been performed. Methods and end-points for histopathology were similarly described in the van der Fits (2009) paper in that inflammation, epidermal hyperplasia, epidermal hyperkeratosis (rather than parakeratosis) were observed and recorded for severity grade, whereby the respective methodology from Van der Fits et al. (The Journal of Immunology 2009, 182, P. 5836-5845) is hereby incorporated by reference. Histopathology grading scores were excluded for either skin or ear in animals with secondary inflammatory processes (full thickness epidermal ulcers). Scores were averaged by group and standard deviation and statistical significance were calculated. […] Formalin-fixed, paraffin embedded skin from the dorsal surface of the mouse (BALB/c) was stained with hematoxylin and eosin (H&E) stain and assessed microscopically. An important difference from the above reference and to describe in more detail the observations of the present study: Hyperkeratosis can be defined specifically as orthokeratotic (no retained nuclei) or parakeratotic (retained nuclei). Either can occur normally in various anatomical locations and depending on species; however, both conditions are well defined in particular disease states. The van der Fits paper describes their Imiquimod (IMQ)-induced psoriasis model as causing parakeratotic hyperkeratosis similar to what is seen in the human condition, and that was a defined end-point for this study. However, the Danilenko et al. (Veterinary Pathology 2008 45:563) has shown that many rodent psoriasis models have orthokeratotic hyperkeratosis. […] The more general term ‘hyperkeratosis’ was used for grading end-points and describe in the text what type was seen (primarily orthokeratotic).
# Microscopic Histopathology end-points were graded as such: […]
structure (smiles),measurement,setting,value
"CC(C)C[C@H](NC(=O)[C@H](CC(N)=O)NC(=O)[C@H](CC(C)C)NC(=O)[C@@H](NC(=O)[C@@H](C)NC(=O)[C@@H]1CCCN1C(=O)[C@H](CCCNC(=N)N)NC(=O)[C@@H](CCCCN)NC(=O)[C@@H]1CCCN1C(=O)[C@H](CCCNC(=N)N)NC(=O)[C@@H](CCCNC(=N)N)NC(=O)[C@H](CCCNC(=N)N)NC(=O)[C@H](CCCNC(=N)N)NC(=O)[C@H](CCC(N)=O)NC(=O)[C@@H](CCCNC(=N)N)NC(=O)[C@H](CCCNC(=N)N)NC(=O)[C@H](CCCCN)NC(=O)[C@H](CCCCN)NC(=O)[C@H](N)CCCNC(=N)N)[C@@H](C)O)C(=O)N[C@H](Cc1ccccc1)C(N)=O [SEQ ID NO: 172, rKKRrQRRrRPkRPaTLNLf] (H-[dR]KKR[dR]QRR[dR]RP[dK]RP[dA]TLNL[dF]-NH2; N-terminus assumed)",PMA-iono-induced IL-2 release,rat whole blood,did efficiently reduce
same,epidermal hyperkeratosis of the ear (average grades),"[1]; 0.02 mg/kg IV days 1, 4, 7",minimally decreased average grades
same,epidermal hyperplasia of the ear,"[1]; 0.2 mg/kg IV days 1, 4, 7",Minimal decreases in epidermal hyperplasia of the ear
same,inflammation of the ear (average grade) vs vehicle-IMQ,"[1]; 0.2 mg/kg IV days 1, 4, 7",decreased inflammation of the ear
same,inflammation of the ear (average grade) vs vehicle-IMQ,"[1]; 0.2 mg/kg IV days 1, 4, 7, listed as XG-104",significant differences from the vehicle control group
same,inflammation of the ear (average grade) vs vehicle-IMQ,"[1]; 2 mg/kg IV days 1, 4, 7",decreased inflammation of the ear
